From ChEMBL document CHEMBL5543174, “A Nonbactericidal Anionic Antimicrobial Peptide Provides Prophylactic and Therapeutic Efficacies against Bacterial Infections in Mice by Immunomodulatory-Antithrombotic Duality” (J Med Chem, 2024)
The source made the active and inactive calls. The calls are words filed in the database; no cut-off is given here.

What was measured:
Staphylococcus aureus [1] = assay: Antibacterial activity against Methicillin-resistant Staphylococcus aureus infected in C57BL/6 mouse assessed as reduction in IL-1beta level in serum at 10 mg/kg,ip administrated 5 hrs after bacterial infection measured after 24 hrs by ELISA; assay type: functional, organism-based; conditions: time 19.0 hrs
Staphylococcus aureus [2] = assay: Antimicrobial activity against Staphylococcus aureus ATCC 25923 assessed as reduction in metabolic activity at < 200 ug/ml incubated for 1 to 4 hrs by CCK-8 assay; assay type: functional, organism-based; conditions: dose < 200.0 µg/ml, time 1-4 hrs
Escherichia coli [3] = assay: Antimicrobial activity against Escherichia coli ATCC 25922 assessed as reduction in microbial colony forming unit at 200 ug/ml incubated for 1 to 4 hrs by time-kill kinetics based analysis; assay type: functional, organism-based; conditions: dose 200.0 µg/ml, time 1-4 hrs
Staphylococcus aureus [4] = assay: Antibacterial activity against Staphylococcus aureus ATCC 25923 infected in C57BL/6 mouse assessed as reduction in inflammatory injury in lung at 10 mg/kg,ip pre-administrated 5 hrs before bacterial infection measured after 24 hrs by hematoxylin and eosin staining based analysis; assay type: functional, organism-based; conditions: time 29.0 hrs
Staphylococcus aureus [5] = assay: Antibacterial activity against Methicillin-resistant Staphylococcus aureus infected in C57BL/6 mouse assessed as reduction in bacterial load at 10 mg/kg,ip administrated 5 hrs after bacterial infection; assay type: functional, organism-based
Escherichia coli [6] = assay: Antibacterial activity against Escherichia coli ATCC 25922 infected in C57BL/6 mouse assessed as reduction in IL-1beta level in serum at 10 mg/kg,ip pre-administrated 5 hrs before bacterial infection measured after 24 hrs by ELISA; assay type: functional, organism-based; conditions: time 29.0 hrs
Neutrophil [7] = assay: Induction of immune response in mouse bone marrow derived neutrophil assessed as neutrophil extracellular trap formation at 100 ug/ml incubated for 4 hrs by DAPI staining based fluorescence microscopic analysis; assay type: functional, cell-based; conditions: dose 100.0 µg/ml
Staphylococcus aureus [8] = assay: Antibacterial activity against Methicillin-resistant Staphylococcus aureus infected in C57BL/6 mouse assessed as reduction in inflammatory injury in lung at 10 mg/kg,ip pre-administrated 5 hrs before bacterial infection measured after 24 hrs by hematoxylin and eosin staining based analysis; assay type: functional, organism-based; conditions: time 29.0 hrs
Escherichia coli [9] = assay: Antibacterial activity against Escherichia coli ATCC 25922 infected in C57BL/6 mouse assessed as reduction in TNF-alpha level in peritoneal fluid at 10 mg/kg,ip pre-administrated 5 hrs before bacterial infection measured after 24 hrs by ELISA; assay type: functional, organism-based; conditions: time 29.0 hrs
Peritoneal macrophage [10] = assay: Immunomodulatory activity in mouse Peritoneal macrophage assessed as decrease in LPS-induced IL-6 production at 25 to 100 ug/ml incubated for 6 hrs by ELISA; assay type: functional, cell-based; conditions: dose 25-100 µg/ml
Staphylococcus aureus [11] = assay: Antibacterial activity against Staphylococcus aureus ATCC 25923 infected in C57BL/6 mouse assessed as reduction in IL-1beta level in peritoneal fluid at 10 mg/kg,ip pre-administrated 5 hrs before bacterial infection measured after 24 hrs by ELISA; assay type: functional, organism-based; conditions: time 29.0 hrs
[12] = tested on: Peritoneal macrophage cell; assay: Induction of chemotaxis in mouse Peritoneal macrophage assessed as upregulation of CXCL2 production at 100 ug/ml preincubated with KN-62 followed by compound addition by ELISA; assay type: functional, cell-based; conditions: dose 100.0 µg/ml
Peritoneal macrophage [13] = assay: Induction of chemotaxis in mouse Peritoneal macrophage assessed as upregulation of MCP-1 production at 100 ug/ml preincubated with KN-62 followed by compound addition by ELISA; assay type: functional, cell-based; conditions: dose 100.0 µg/ml
Staphylococcus aureus [14] = assay: Antibacterial activity against Methicillin-resistant Staphylococcus aureus infected in C57BL/6 mouse assessed as reduction in IL-6 level in serum at 10 mg/kg,ip pre-administrated 5 hrs before bacterial infection measured after 24 hrs by ELISA; assay type: functional, organism-based; conditions: time 29.0 hrs
Peritoneal macrophage [15] = assay: Induction of phagocytosis in mouse Peritoneal macrophage assessed as increase in neutral red dye uptake by measuring optical density absorbance at 25 ug/ml incubated for 24 hrs followed by dye addition measured after 4 hrs by absorbance based assay (reference value: 0.089); assay type: functional; conditions: dose 25 µg/ml; time 28 hrs
Escherichia coli [16] = assay: Antibacterial activity against Carbapenem-resistant Escherichia coli infected in C57BL/6 mouse assessed as reduction in bacterial load at 10 mg/kg,ip pre-administrated 5 hrs before bacterial infection; assay type: functional, organism-based
Lymphocyte = assay: Immunomodulatory activity in mouse mesenteric lymph node derived lymphocyte assessed as increase in lymphocyte proliferation at < 200 ug/ml incubated for 24 hrs by CCK-8 assay; assay type: functional, cell-based; conditions: dose < 200.0 µg/ml
Escherichia coli [17] = assay: Antibacterial activity against Escherichia coli ATCC 25922 infected in C57BL/6 mouse assessed as reduction in TNF-alpha level in peritoneal fluid at 10 mg/kg,ip administrated 5 hrs after bacterial infection measured after 24 hrs by ELISA; assay type: functional, organism-based; conditions: time 19.0 hrs
Staphylococcus aureus [18] = assay: Antibacterial activity against Staphylococcus aureus ATCC 25923 infected in C57BL/6 mouse assessed as reduction in inflammatory injury in lung at 10 mg/kg,ip administrated 5 hrs after bacterial infection measured after 24 hrs by hematoxylin and eosin staining based analysis; assay type: functional, organism-based; conditions: time 19.0 hrs
Escherichia coli [19] = assay: Antibacterial activity against Escherichia coli ATCC 25922 infected in C57BL/6 mouse assessed as reduction in bacterial load at 10 mg/kg,ip administrated 5 hrs after bacterial infection; assay type: functional, organism-based
Staphylococcus aureus [20] = assay: Antibacterial activity against Staphylococcus aureus ATCC 25923 infected in C57BL/6 mouse assessed as reduction in TNF-alpha level in serum at 10 mg/kg,ip pre-administrated 5 hrs before bacterial infection measured after 24 hrs by ELISA; assay type: functional, organism-based; conditions: time 29.0 hrs
Neutrophil [21] = assay: Induction of degranulation in mouse bone marrow derived neutrophil assessed as increase in CRAMP release at 25 to 100 ug/ml incubated for 6 hrs by ELISA; assay type: functional, cell-based; conditions: dose 25-100 µg/ml
Morganella morganii = assay: Antimicrobial activity against Morganella morganii ATCC25830 assessed as inhibition of microbial growth at <= 200 ug/ml incubated for 18 hrs by micro-broth dilution method; assay type: functional, organism-based; conditions: dose <= 200.0 µg/ml
Escherichia coli [22] = assay: Antibacterial activity against Escherichia coli ATCC 25922 infected in C57BL/6 mouse assessed as reduction in inflammatory injury in lung at 10 mg/kg,ip administrated 5 hrs after bacterial infection measured after 24 hrs by hematoxylin and eosin staining based analysis; assay type: functional, organism-based; conditions: time 19.0 hrs
Neutrophil [23] = assay: Induction of degranulation in mouse bone marrow derived neutrophil assessed as increase in BD-2 release at 25 to 100 ug/ml incubated for 6 hrs by ELISA; assay type: functional, cell-based; conditions: dose 25-100 µg/ml
[24] = tested on: Peritoneal macrophage cell; assay: Induction of chemotaxis in mouse Peritoneal macrophage assessed as upregulation of CXCL1 production at 100 ug/ml preincubated with MTS510 followed by compound addition by ELISA; assay type: functional, cell-based; conditions: dose 100.0 µg/ml
Neutrophil [25] = assay: Induction of degranulation in mouse bone marrow derived neutrophil assessed as increase in lactoferrin release at 25 to 100 ug/ml incubated for 6 hrs by ELISA; assay type: functional, cell-based; conditions: dose 25-100 µg/ml
Mus musculus [26] = assay: Anticoagulation activity in mouse infected with Carbapenem-resistant Escherichia coli assessed as increase in plasma APC expression at 10 mg/kg,ip pre-administrated 5 hrs before bacterial infection measured after 24 hrs by ELISA; assay type: functional, organism-based; conditions: time 29.0 hrs
Enterococcus faecalis = assay: Antimicrobial activity against Enterococcus faecalis ATCC 29212 assessed as inhibition of microbial growth at <= 200 ug/ml incubated for 18 hrs by micro-broth dilution method; assay type: functional, organism-based; conditions: dose <= 200.0 µg/ml
Mus musculus [27] = assay: Induction of chemotaxis in C57BL/6 mouse assessed as upregulation of CXCL2 expression in peritoneal lavage at 10 mg/kg,ip administration measured at 5 to 24 hrs by ELISA; assay type: functional, organism-based; conditions: time 5-24 hrs

CC[C@H](C)[C@H](NC(=O)[C@@H]1CSSC[C@H](NC(=O)[C@H](CCC(=O)O)NC(=O)[C@@H](NC(=O)[C@H](CCCCN)NC(=O)[C@H](Cc2c[nH]cn2)NC(=O)[C@@H](NC(=O)[C@H](CCCCN)NC(=O)[C@H](CCC(=O)O)NC(=O)[C@H](C)NC(=O)[C@H](CCC(=O)O)NC(=O)[C@H](CCC(=O)O)NC(=O)[C@H](CCC(=O)O)NC(=O)[C@H](C)N)[C@@H](C)O)[C@@H](C)O)C(=O)N[C@@H](CC(C)C)C(=O)N[C@@H](CCC(=O)O)C(=O)N1)C(=O)N[C@@H](Cc1ccccc1)C(=O)N[C@H](C(=O)N[C@@H](CC(C)C)C(=O)N[C@@H](CC(C)C)C(=O)N1CCC[C@H]1C(=O)N1CCC[C@@H]1C(=O)N[C@H](C)C(=O)O)[C@@H](C)O
Activity (Staphylococcus aureus [1]): Active | Activity (Staphylococcus aureus [2]): inactive | Activity (Escherichia coli [3]): inactive | Activity (Staphylococcus aureus [4]): Active | Activity (Staphylococcus aureus [5]): Active | Activity (Escherichia coli [6]): Active | Activity (Neutrophil [7]): Active | Activity (Staphylococcus aureus [8]): Active | Activity (Escherichia coli [9]): Active | Activity (Peritoneal macrophage [10]): inactive | Activity (Staphylococcus aureus [11]): Active | Activity [12]: Active | Activity (Peritoneal macrophage [13]): Active | Activity (Staphylococcus aureus [14]): Active | OD (Peritoneal macrophage [15]): 0.097 | Activity (Escherichia coli [16]): Active | Activity (Lymphocyte): inactive | Activity (Escherichia coli [17]): Active | Activity (Staphylococcus aureus [18]): Active | Activity (Escherichia coli [19]): Active | Activity (Staphylococcus aureus [20]): Active | Activity (Neutrophil [21]): Active | Activity (Morganella morganii): inactive | Activity (Escherichia coli [22]): Active | Activity (Neutrophil [23]): inactive | Activity [24]: Active | Activity (Neutrophil [25]): Active | Activity (Mus musculus [26]): Active | Activity (Enterococcus faecalis): inactive | Activity (Mus musculus [27]): inactive
